Measurements as given in ChEMBL document CHEMBL1201862, “PubChem BioAssay data set” (2004).
Calls of active or inactive are those of the source.

Columns and labels:
[1] = cells
[2] = target: Major prion protein (Homo sapiens, UniProt P04156); format: functional, cell-based
[3] = target: T1, Hepatocyte nuclear factor 4-alpha (Homo sapiens, UniProt P41235); format: functional, cell-based;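 note: biochemical luminescence-based dose-response counterscreen measuring inhibition of HNF4 dimerization, run alongside a screen for blockers of ABHD5–perilipin-5 interaction; split luciferase complementation of HNF4 fusion proteins in cell lysate measuring dimerization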
T1 sequence (P41235 whole entry): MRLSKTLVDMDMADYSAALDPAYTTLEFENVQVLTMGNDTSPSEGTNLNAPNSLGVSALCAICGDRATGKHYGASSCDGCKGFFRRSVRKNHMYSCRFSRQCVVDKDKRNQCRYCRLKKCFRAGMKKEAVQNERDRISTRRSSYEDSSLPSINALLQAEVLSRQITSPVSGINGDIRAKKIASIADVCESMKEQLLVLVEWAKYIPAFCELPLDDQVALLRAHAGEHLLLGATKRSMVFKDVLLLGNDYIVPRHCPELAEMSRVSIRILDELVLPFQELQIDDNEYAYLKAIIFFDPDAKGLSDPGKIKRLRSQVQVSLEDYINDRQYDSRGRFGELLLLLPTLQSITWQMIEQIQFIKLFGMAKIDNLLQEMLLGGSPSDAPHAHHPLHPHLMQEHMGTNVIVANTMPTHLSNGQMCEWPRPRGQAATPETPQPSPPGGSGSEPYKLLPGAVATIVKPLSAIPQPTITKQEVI

[4] = Counterscreen for inhibitors of Trypanosoma brucei methionyl tRNA synthetase (MetRS): Luminescence-based cell-based high throughput dose response assay to identify compounds that are cytotoxic to Jurkat human T lymphocyte cells.; format: functional
[5] = target: T2, Methionyl-tRNA synthetase, putative (Trypanosoma brucei brucei, UniProt Q38C91); format: functional, Trypanosoma brucei brucei strain 927/4 GUTat10.1
T2 sequence (Q38C91 whole entry): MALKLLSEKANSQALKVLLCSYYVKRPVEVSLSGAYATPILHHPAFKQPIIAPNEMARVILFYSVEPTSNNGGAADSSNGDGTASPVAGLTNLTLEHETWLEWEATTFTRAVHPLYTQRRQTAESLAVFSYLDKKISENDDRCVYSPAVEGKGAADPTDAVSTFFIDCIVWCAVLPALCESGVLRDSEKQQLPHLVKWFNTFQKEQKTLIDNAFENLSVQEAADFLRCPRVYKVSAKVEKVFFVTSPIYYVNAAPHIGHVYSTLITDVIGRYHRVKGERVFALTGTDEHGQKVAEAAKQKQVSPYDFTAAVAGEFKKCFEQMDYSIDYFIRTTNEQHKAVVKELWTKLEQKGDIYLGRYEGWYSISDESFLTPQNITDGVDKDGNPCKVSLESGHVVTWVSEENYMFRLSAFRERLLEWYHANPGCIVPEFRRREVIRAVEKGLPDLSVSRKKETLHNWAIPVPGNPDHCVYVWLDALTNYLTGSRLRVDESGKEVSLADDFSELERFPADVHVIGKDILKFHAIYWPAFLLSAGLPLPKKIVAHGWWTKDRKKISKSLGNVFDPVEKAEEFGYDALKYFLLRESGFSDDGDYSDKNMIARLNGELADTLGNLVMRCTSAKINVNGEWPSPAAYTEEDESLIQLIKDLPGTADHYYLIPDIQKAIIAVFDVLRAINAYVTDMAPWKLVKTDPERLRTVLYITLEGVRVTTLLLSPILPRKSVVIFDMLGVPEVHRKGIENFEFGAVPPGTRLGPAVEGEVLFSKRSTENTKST

[6] = target: T2, Methionyl-tRNA synthetase, putative; format: functional, Trypanosoma brucei brucei strain 927/4 GUTat10.1; remark: listed apart in the source
[7] = target: T3, DNA repair and recombination protein RAD54-like (Homo sapiens, UniProt Q92698); assay: RAD54 Holliday junction migration blockers – biochemical, fluorescence, cherry-picked samples, dose series, confirmation (AID 651657); format: functional
T3 sequence (Q92698 whole entry): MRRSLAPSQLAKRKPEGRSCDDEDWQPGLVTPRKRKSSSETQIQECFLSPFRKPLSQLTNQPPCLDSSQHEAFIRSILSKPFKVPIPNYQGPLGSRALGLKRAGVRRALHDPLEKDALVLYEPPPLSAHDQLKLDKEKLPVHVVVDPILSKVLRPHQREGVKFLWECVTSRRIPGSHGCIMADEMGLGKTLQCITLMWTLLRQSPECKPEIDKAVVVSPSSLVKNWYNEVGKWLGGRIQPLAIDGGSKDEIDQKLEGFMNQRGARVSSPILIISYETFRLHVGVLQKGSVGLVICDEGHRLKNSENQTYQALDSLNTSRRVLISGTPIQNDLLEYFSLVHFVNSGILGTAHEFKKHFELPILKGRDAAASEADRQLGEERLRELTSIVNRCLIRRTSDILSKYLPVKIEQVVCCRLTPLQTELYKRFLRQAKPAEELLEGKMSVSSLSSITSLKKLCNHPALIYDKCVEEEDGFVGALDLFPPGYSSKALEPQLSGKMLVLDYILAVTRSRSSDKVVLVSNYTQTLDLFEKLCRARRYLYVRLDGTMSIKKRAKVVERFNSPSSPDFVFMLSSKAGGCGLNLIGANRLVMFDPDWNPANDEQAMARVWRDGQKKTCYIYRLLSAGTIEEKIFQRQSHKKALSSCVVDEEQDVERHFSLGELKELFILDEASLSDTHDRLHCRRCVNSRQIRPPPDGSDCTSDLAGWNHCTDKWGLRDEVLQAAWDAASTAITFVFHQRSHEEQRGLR

[8] = target: T4, Long-chain-fatty-acid--AMP ligase FadD28 (Mycobacterium tuberculosis, UniProt P9WQ59); assay: Fluorescence polarization aasay to screen for inhibitors that compete for the binding of FadD28 to a bisubstrate Measured in Biochemical System Using Plate Reader - 2147-01_Inhibitor_Dose_CherryPick_Activity.; format: functional, Mycobacterium tuberculosis H37Rv
T4 sequence (P9WQ59 whole entry): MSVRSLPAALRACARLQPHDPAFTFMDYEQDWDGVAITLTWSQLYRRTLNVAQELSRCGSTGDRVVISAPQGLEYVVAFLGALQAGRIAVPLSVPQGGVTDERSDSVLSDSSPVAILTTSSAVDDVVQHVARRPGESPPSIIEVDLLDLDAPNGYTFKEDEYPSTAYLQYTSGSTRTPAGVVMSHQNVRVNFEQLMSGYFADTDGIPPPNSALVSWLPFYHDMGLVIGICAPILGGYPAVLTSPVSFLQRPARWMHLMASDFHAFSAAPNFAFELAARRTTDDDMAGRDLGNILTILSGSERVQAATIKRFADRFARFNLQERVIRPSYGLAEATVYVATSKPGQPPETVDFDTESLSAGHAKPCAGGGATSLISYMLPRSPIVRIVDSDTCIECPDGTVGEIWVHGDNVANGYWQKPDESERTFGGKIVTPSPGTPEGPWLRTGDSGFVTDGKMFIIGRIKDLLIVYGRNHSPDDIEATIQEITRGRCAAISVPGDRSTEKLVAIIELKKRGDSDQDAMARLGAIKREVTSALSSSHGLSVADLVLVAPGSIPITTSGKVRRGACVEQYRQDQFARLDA

[9] = cells; format: functional, cell-based
[10] = test system: INS1; assay: INS-1E survival protection against cytokine death – cell-based, luminescence, retest, dose response (AID 449756); format: functional; conditions: Rattus norvegicus;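 note: cell death triggered by IL-1 beta plus TNF-alpha plus IFN-gamma mixture; protective hits raise ATP signal compared with cytokine alone wells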
[11] = cells; format: functional, cell-based; remark: listed apart in the source
[12] = bead-based luminescence quenchers, dual-tagged ARNT – biochemical, AlphaScreen, cherry-pick, artefact control for ARNT-TACC3 interaction inhibitor project, dose response (AID 651705); format: functional;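 note: AlphaScreen bead proximity signal that flags compounds interfering with the detection technology; potency reflects signal decrease which marks the compound as an assay artifact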
[13] = test system: H9c2; assay: cells; format: functional, cell-based; conditions: Rattus norvegicus, H9c2, Myocardium;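 note: confirmatory concentration-response retest of ultra-high-throughput screening hits for modulation of myocardial damage; cell death induced by hydrogen peroxide oxidative stress; compound pretreatment for 60 min then peroxide exposure for 2 h; potency is for protecting the cells against peroxide damage rather than for killing them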
[14] = Luminescence Cell-Based Dose Retest to Confirm Inhibitors of Cancer Stem Cells. [Related pubchem assays (depositor defined):AID2717, AID2721]; format: functional; conditions: Homo sapiens
[15] = target: T5, Rac GTPase-activating protein 1 (Homo sapiens, UniProt Q9H0H5); assay: blockers of MgcRacGAP-driven Rac1 GTP hydrolysis – biochemical, ADP Hunter fluorescence, primary and confirmatory, confirmation (AID 624330); format: functional
T5 sequence (Q9H0H5 whole entry): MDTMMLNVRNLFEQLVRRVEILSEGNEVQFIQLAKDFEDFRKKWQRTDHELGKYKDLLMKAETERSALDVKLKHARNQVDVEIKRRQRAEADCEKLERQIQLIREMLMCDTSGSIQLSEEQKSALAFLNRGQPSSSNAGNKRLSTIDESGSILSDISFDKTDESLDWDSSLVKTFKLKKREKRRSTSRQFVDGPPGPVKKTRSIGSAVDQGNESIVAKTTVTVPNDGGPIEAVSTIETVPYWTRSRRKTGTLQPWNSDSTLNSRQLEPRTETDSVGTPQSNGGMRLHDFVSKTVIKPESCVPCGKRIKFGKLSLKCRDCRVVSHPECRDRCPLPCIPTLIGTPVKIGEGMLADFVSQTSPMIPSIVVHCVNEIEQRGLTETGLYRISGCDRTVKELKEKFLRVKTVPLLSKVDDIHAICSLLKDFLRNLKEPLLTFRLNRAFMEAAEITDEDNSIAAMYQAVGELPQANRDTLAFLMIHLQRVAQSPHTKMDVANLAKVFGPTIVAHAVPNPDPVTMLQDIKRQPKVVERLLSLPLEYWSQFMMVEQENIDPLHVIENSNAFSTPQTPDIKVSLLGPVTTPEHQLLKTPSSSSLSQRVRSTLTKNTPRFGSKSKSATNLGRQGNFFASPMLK

[16] = target: T6, DNA repair protein RAD52 homolog (Homo sapiens, UniProt P43351); format: functional, biochemical
T6 sequence (P43351 whole entry): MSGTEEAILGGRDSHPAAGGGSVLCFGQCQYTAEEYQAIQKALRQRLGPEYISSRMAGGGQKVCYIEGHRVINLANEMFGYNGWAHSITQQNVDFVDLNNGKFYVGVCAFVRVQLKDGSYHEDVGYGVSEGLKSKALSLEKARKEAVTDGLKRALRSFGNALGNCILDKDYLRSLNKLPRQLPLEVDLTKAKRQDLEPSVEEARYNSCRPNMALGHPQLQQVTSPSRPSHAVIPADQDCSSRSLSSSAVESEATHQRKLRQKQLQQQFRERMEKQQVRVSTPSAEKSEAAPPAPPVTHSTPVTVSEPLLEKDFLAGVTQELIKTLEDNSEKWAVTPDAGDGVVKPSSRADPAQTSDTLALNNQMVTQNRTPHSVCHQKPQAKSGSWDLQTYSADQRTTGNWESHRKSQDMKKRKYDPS

[17] = target: T7, Microphthalmia-associated transcription factor (Homo sapiens, UniProt O75030); assay: reducers of TRPM1 reporter luminescence, concentration series – cell-based, SK-MEL-5, cherry-picked, set 3, MITF inhibitor project, dose response (AID 493073); format: functional;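 note: SK-MEL-5 melanoma cells with luciferase driven by the MITF target TRPM1 promoter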
T7 sequence (O75030 whole entry): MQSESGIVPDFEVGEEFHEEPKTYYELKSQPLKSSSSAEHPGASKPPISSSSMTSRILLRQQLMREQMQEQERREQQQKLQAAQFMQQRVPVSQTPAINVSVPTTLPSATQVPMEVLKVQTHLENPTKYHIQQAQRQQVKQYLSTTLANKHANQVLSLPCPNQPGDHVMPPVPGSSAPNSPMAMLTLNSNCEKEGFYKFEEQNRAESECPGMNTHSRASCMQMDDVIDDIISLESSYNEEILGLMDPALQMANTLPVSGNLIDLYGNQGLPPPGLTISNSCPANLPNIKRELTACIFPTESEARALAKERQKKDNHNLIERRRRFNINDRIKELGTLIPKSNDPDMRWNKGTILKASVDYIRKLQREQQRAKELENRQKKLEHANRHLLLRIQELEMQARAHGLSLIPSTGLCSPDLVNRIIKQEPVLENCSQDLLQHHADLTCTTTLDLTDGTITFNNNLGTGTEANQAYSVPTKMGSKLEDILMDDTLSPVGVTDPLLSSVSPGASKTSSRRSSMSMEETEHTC

CCOc1ccc(NC(=O)CCSc2ccc3ccccc3n2)cc1
IC50 [1]: > 138 µM (inactive) | IC50 [2]: 9.01 µM (active)

NC(=O)C(C(=O)/C=C/c1ccc(Cl)cc1)=C1SCCS1
IC50 [3]: 12.1 µM (inactive)

OC(c1cc(F)cc(Cl)c1)c1nc(-c2ccc3ccccc3c2)c[nH]1 (centres undefined)
IC50 [4]: 83.3 µM (inactive) | IC50 [5]: 1.46 µM (active) | IC50 [6]: 2.45 µM (active)

Cc1cccc(NS(=O)(=O)c2c(C)[nH]c(C)c2C(=O)N2CCCC2)c1
IC50 [4]: 83.3 µM (inactive) | IC50 [5]: 35.4 µM (inactive) | IC50 [6]: 11.8 µM (inactive)

CCCCCNC(=O)C(c1cc2ccccc2o1)n1c(=O)c(-c2ccco2)nc2ccccc21 (centres undefined)
IC50 [3]: 2 µM (active)

CCOC(=O)c1c(CN2CCCCC2)n(C)c2cc(Br)c(OC)cc12
AC50 [7]: 36.3 µM (active)

COC(=O)COc1ccc(Cl)cc1C1Nc2ccccc2C(=O)N1c1ccc(OC)cc1 (centres undefined)
AC50 [8]: > 100 µM (inactive)

NC(=O)CSc1nc(-c2ccccc2)nc2ccccc12
IC50 [1]: > 138 µM (inactive) | IC50 [2]: 6.23 µM (active)

Cc1cccn2c(=O)c3cc(C(=O)NCc4ccccc4)c(=N)n(CCCN4CCOCC4)c3nc12
AC50 [7]: 15.3 µM (active)

Cc1cccc(OCC(=O)N/N=C\c2cn(C)c3ccccc23)c1
AC50 [8]: 14.6 µM (active)

CCc1ccc(NC(=O)CSc2ccc(-c3ccccn3)nn2)cc1
EC50 [9]: > 350 µM (not active) | AC50 [10]: 9.24 µM (active) | EC50 [11]: 160 µM (active) | AC50 [12]: 87 µM (active) | IC50 [13]: > 79 µM (inactive)

Cc1cccc(NC(=O)CCC(=O)N/N=C/c2ccc(O)cc2O)c1
AC50 [14]: 9.74 µM (active) | AC50 [12]: 118 µM (active) | IC50 [15]: 62.8 µM (active)

COC(=O)CSc1ccnc2cc(Cl)ccc12
IC50 [1]: > 138 µM (inactive) | IC50 [2]: 5.16 µM (active)

CCN1CCN(c2ccc(Nc3ccnc4ccccc34)cc2)CC1
AC50 [7]: 12.2 µM (active) | AC50 [16]: 3.19 µM (active) | AC50 [17]: 12.3 µM (active)
